SMILES strings stand for the structures. Bounds are passed on as bounds.

The assay addresses T1, hGPR120 (Homo sapiens, UniProt Q5NUL3).
T1 construct: expressed in transfected cells; host or cells: CHO-K1
T1 sequence (Q5NUL3 1-361): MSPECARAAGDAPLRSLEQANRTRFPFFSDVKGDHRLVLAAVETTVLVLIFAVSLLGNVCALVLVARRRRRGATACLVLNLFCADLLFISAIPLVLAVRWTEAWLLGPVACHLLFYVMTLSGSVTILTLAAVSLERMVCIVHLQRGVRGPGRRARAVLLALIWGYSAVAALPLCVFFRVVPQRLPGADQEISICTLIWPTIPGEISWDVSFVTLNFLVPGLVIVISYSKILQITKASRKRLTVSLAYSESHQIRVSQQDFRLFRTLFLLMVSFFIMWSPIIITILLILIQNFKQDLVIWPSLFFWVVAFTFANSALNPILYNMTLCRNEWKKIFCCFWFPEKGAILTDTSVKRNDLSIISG
The experiment in a line: Measurement of activity of GPR120 agonist (cell-based calcium fluorescence assay). The conditions noted are these: CHO-K1 cells expressing Ga16 and hGPR120, Calcium 5 dye fluorescence; activity class; read-out: EC50. The method in brief:
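CHO-K1 cells co-expressing Gα16 and hGPR120, plated 18 h, loaded with Calcium 5 dye for 1 h at 37 °C, then given serially diluted agonists (final 0.5% DMSO). Fluorescence increase expressed as relative % of the 1% DMSO-only signal.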
With `CC(C)Oc1ncccc1-c1cc(F)c(OCCCCC(=O)O)c(F)c1` [Example 213, 5-[2,6-difluoro-4-(2-isopropoxy-pyridin-3-yl)-phenoxy]-pentanoic acid], the EC50 – broadly, the concentration at which the effect is half-maximal – was below 200 nM.

Consider `O=C(O)CCCCOc1c(F)cc(-c2cccnc2OC2CCC2)cc1F` [Example 214, 5-[4-(2-cyclobutoxy-pyridin-3-yl)-2,6-difluoro-phenoxy]-pentanoic acid], for which the half-maximal effective concentration (EC50) is below 200 nM.

In the case of `O=C(O)CCCOc1c(F)cc(-c2cccnc2N2CCC(F)(F)C2)cc1F` [Example 215, 4-[4-[2-(3,3-difluoropyrrolidin-1-yl)-3-pyridyl]-2,6-difluoro-phenoxy]butanoic acid], the EC50 lay in the range of 200 to 2000 nM.

As to `CN1CCN(c2ncccc2-c2cc(F)c(OCCCC(=O)O)c(F)c2)CC1` [Example 216, 4-[2,6-difluoro-4-[2-(4-methylpiperazin-1-yl)-3-pyridyl]phenoxy]butanoic acid], the concentration giving a half-maximal response (EC50) was above 20000 nM.

Regarding `Cc1cc(Oc2ncccc2-c2cc(F)c(OCCCC(=O)O)c(F)c2)no1` [Example 217, 4-[2,6-difluoro-4-[2-(5-methylisoxazol-3-yl)oxy-3-pyridyl]phenoxy]butanoic acid], the EC50 is 2000 to 20000 nM.

Turning to `O=C(O)CCCOc1c(F)cc(-c2cccnc2OCCN2CC2)cc1F` [Example 218, 4-[4-[2-[2-(aziridin-1-yl)ethoxy]-3-pyridyl]-2,6-difluoro-phenoxy]butanoic acid], the EC50 was above 20000 nM.

Regarding `O=C(O)CCCOc1c(F)cc(-c2cccnc2OCc2ccco2)cc1F` [Example 220, 4-[2,6-difluoro-4-[2-(2-furylmethoxy)-3-pyridyl]phenoxy]butanoic acid], the EC50 lay within 200 to 2000 nM.

For `CC1(COc2ncccc2-c2cc(F)c(OCCCC(=O)O)c(F)c2)COC1` [Example 221, 4-[2,6-difluoro-4-[2-[(3-methyloxetan-3-yl)methoxy]-3-pyridyl]phenoxy]butanoic acid], the concentration for a half-maximal effect (EC50) was above 20000 nM.

For the compound `O=C(O)CCCOc1c(F)cc(-c2cccnc2OCC2CCOC2)cc1F` (stereo not drawn) [Example 222, 4-[2,6-difluoro-4-[2-(tetrahydrofuran-3-ylmethoxy)-3-pyridyl]phenoxy]butanoic acid], the EC50 was in the range of 2000 to 20000 nM.

On to `O=C(O)CCCOc1c(F)cc(-c2cccnc2OC2CC2)cc1F` [Example 225, 4-[4-(2-cyclopropoxy-pyridin-3-yl)-2,6-difluoro-phenoxy]-butyric acid], for which the EC50 was 200 to 2000 nM.

In the case of `CC(C)(C)[Si](C)(C)OC1CCC(Oc2ncccc2-c2cc(F)c(OCCCC(=O)O)c(F)c2)C1` (stereo not drawn) [Example 226, 4-(4-{2-[3-(tert-butyl-dimethyl-silanyloxy)-cyclopentyloxy]-pyridin-3-yl}-2,6-difluoro-phenoxy)-butyric acid], the EC50 was above 20000 nM.

Regarding `O=C(O)CCCOc1c(F)cc(-c2cccnc2OC2CCC(O)C2)cc1F` (stereo not drawn) [Example 227, 4-{2,6-difluoro-4-[2-(3-hydroxy-cyclopentyloxy)-pyridin-3-yl]-phenoxy}-butyric acid], the EC50 was 2000 to 20000 nM.

Take `O=C(O)CCCOc1c(F)cc(-c2cccnc2OC2CCCCC2)cc1F` [Example 228, 4-[4-(2-cyclohexyloxy-pyridin-3-yl)-2,6-difluoro-phenoxy]-butyric acid]: the EC50 was below 200 nM.

In the case of `O=C(O)CCCOc1c(F)cc(-c2cccnc2OCC2CCCC2)cc1F` [Example 229, 4-[4-(2-cyclopentylmethoxy-pyridin-3-yl)-2,6-difluoro-phenoxy]-butyric acid], the concentration for a half-maximal effect (EC50) is below 200 nM.

For the compound `CC(C)COc1ncccc1-c1cc(F)c(OCCCC(=O)O)c(F)c1` [Example 230, 4-[2,6-difluoro-4-(2-isobutoxy-pyridin-3-yl)-phenoxy]-butyric acid], the EC50 was below 200 nM.

Consider `CC(C)(C)COc1ncccc1-c1cc(F)c(OCCCC(=O)O)c(F)c1` [Example 231, 4-{4-[2-(2,2-dimethy-propoxy)-pyridin-3-yl]-2,6-difluoro-phenoxy}-butyric acid], for which the EC50 is 200 to 2000 nM.

Consider `O=C(O)CCCCOc1c(F)cc(-c2cccnc2OC2CCCC2)cc1F` [Example 232, 5-[4-(2-cyclopentyloxy-pyridin-3-yl)-2,6-difluoro-phenoxy]-pentanoic acid], for which the half-maximal effective concentration (EC50) was below 200 nM.

`O=C(O)CCCCOc1c(F)cc(-c2cccnc2SC2CCC2)cc1F` [Example 233, 5-[4-(2-cyclobutylsulfanyl-3-pyridyl)-2,6-difluoro-phenoxy]pentanoic acid]: the EC50 is below 200 nM.

On to `O=C(O)CCCCOc1c(F)cc(-c2cccnc2SC2CCCC2)cc1F` [Example 234, 5-[4-(2-cyclopentylsulfanyl-3-pyridyl)-2,6-difluoro-phenoxy]pentanoic acid], for which the EC50 was below 200 nM.

`CC(C)Sc1ncccc1-c1cc(F)c(OCCCCC(=O)O)c(F)c1` [Example 235, 5-[2,6-difluoro-4-(2-isopropylsulfanyl-3-pyridyl)phenoxy]pentanoic acid]: the EC50 is below 200 nM.

Regarding `CCCSc1ncccc1-c1cc(F)c(OCCCCC(=O)O)c(F)c1` [Example 236, 5-[2,6-difluoro-4-(2-propylsulfanyl-3-pyridyl)phenoxy]pentanoic acid], the EC50 was below 200 nM.

On to `CC(C)Sc1cccc(-c2cc(F)c(OCCCCC(=O)O)c(F)c2)n1` [Example 237, 5-[2,6-difluoro-4-(6-isopropylsulfanyl-2-pyridyl)phenoxy]pentanoic acid], for which the EC50 was below 200 nM.

For `CC(C)Oc1cccc(-c2cc(F)c(OCCCCC(=O)O)c(F)c2)n1` [Example 238, 5-[2,6-difluoro-4-(6-isopropoxy-2-pyridyl)phenoxy]pentanoic acid], the EC50 was below 200 nM.

Regarding `O=C(O)CCCCOc1c(F)cc(-c2cccnc2OCC2CC2)cc1F` [Example 239, 5-[4-[2-(cyclopropylmethoxy)-3-pyridyl]-2,6-difluoro-phenoxy]pentanoic acid], the EC50 was below 200 nM.

In the case of `O=C(O)CCCCOc1c(F)cc(-c2cccnc2OC2CCOC2)cc1F` (stereo not drawn) [Example 240, 5-[2,6-difluoro-4-(2-tetrahydrofuran-3-yloxy-3-pyridyl)phenoxy]pentanoic acid], the EC50 lay in the range of 200 to 2000 nM.

With `O=C(O)CCCCOc1c(F)cc(-c2cccnc2OC2CCOCC2)cc1F` [Example 241, 5-[2,6-difluoro-4-(2-tetrahydropyran-4-yloxy-3-pyridyl)phenoxy]pentanoic acid], the EC50 lay within 200 to 2000 nM.

Take `CC(C)Oc1ncccc1-c1cc(F)c(SC(C)CCC(=O)O)c(F)c1` (stereo not drawn) [Example 242, 4-[2,6-difluoro-4-(2-isopropoxy-pyridin-3-yl)-phenylsulfanyl]-pentanoic acid]: the EC50 is below 200 nM.

For the compound `O=C(O)CCCSc1ccc(-c2cccnc2OC2CCOCC2)cc1F` [Example 244, 4-{2-fluoro-4-[2-(tetrahydropyran-4-yloxy)-pyridin-3-yl]-phenylsulfanyl}-butyric acid], the EC50 was in the range of 200 to 2000 nM.

With `O=C(O)CCCSc1ccc(-c2cccnc2OC2CCOC2)cc1F` (stereo not drawn) [Example 245, 4-{2-fluoro-4-[2-(tetrahydrofuran-3-yloxy)-pyridin-3-yl]-phenylsulfanyl}-butyric acid], the EC50 was 200 to 2000 nM.

Take `O=C(O)CCCSc1ccc(-c2cccnc2OCC2CCC2)cc1F` [Example 246, 4-[4-(2-cyclobutylmethoxy-pyridin-3-yl)-2-fluoro-phenylsulfanyl]-butyric acid]: the EC50 is below 200 nM.

In the case of `O=C(O)CCCSc1c(F)cc(-c2cccnc2OCC(F)(F)F)cc1F` [Example 247, 4-{2,6-difluoro-4-[2-(2,2,2-trifluoro-ethoxy)-pyridin-3-yl]-phenylsulfanyl}-butyric acid], the EC50 is below 200 nM.

For the compound `O=C(O)CCCSc1c(F)cc(-c2cccnc2OCC2CCC2)cc1F` [Example 248, 4-[4-(2-cyclobutylmethoxy-pyridin-3-yl)-2,6-difluoro-phenylsulfanyl]-butyric acid], the EC50 is below 200 nM.

Turning to `O=C(O)CCCSc1c(F)cc(-c2cccnc2NC2CCCC2)cc1F` [Example 249, 4-[4-(2-cyclopentylamino-pyridin-3-yl)-2,6-difluoro-phenylsulfanyl]-butyric acid], the EC50 is below 200 nM.

Take `CC(C)Nc1ncccc1-c1cc(F)c(SCCCC(=O)O)c(F)c1` [Example 250, 4-[2,6-difluoro-4-(2-isopropylamino-pyridin-3-yl)-phenylsulfanyl]-butyric acid]: the EC50 lay within 200 to 2000 nM.

For the compound `O=C(O)CCCSc1c(F)cc(-c2cccnc2NCC2CC2)cc1F` [Example 251, 4-{4-[2-(cyclopropylmethyl-amino)-pyridin-3-yl]-2,6-difluoro-phenylsulfanyl}-butyric acid], the EC50 lay in the range of 200 to 2000 nM.

In the case of `O=C(O)CCCCSc1c(F)cc(-c2cccnc2OC2CCCC2)cc1F` [Example 252, 5-[4-(2-cyclopentyloxy-pyridin-3-yl)-2,6-difluoro-phenylsulfanyl]-pentanoic acid], the EC50 was below 200 nM.

Consider `CC(C)Oc1ncccc1-c1cc(F)c(SCCCCC(=O)O)c(F)c1` [Example 253, 5-[2,6-difluoro-4-(2-isopropoxy-pyridin-3-yl)-phenylsulfanyl]-pentanoic acid], for which the EC50 lay within 200 to 2000 nM.

As to `O=C(O)CCCCSc1ccc(-c2cccnc2OC2CCCC2)cc1` [Example 254, 5-[4-(2-cyclopentyloxy-pyridin-3-yl)-phenylsulfanyl]-pentanoic acid], the EC50 is below 200 nM.

For `CC(C)Oc1ncccc1-c1ccc(SCCCCC(=O)O)cc1` [Example 255, 5-[4-(2-isopropoxy-pyridin-3-yl)-phenylsulfanyl]-pentanoic acid], the EC50 is 200 to 2000 nM.
